Laboratory results from patent publication US12172968B1, “4-[4,4-bis(4-chlorophenyl)-2,5-dioxoimidazolidin-1-yl]butanoic acid as an antimicrobial compound” (KING FAISAL UNIVERSITY, priority 2024, dated 2024).

Experiments:
Assay type in all cases: cell-based
Conditions in all cases: after 10, 20, 40 and 60 minutes at all dilutions 1:100, 1:200, 1:400, 1:800
Staphylococcus aereus = assay: Antimicrobial testing by agar dilution, St. Aereus
Description: (§1) The antimicrobial properties of the 4-[4,4-bis(4-chlorophenyl)-2,5-dioxoimidazolidin-1-yl]butanoic acid were studied by the method of agar dilution. Test solutions of each compound was prepared in concentration of 1% using dimethylformamide as a solvent then they are diluted in physiological solution to obtain the final experimental dilutions 1:100, 1:200, 1:400, 1:800. The effect of these substances are compared with furacillin in a controllable study. The testing microbes used were gram positive bacteria Staphylococcus aereus, gram negative bacteria Escherichia Coli, Pseudomonas aeruginosa and Candida albicans fungi were taken. The experiments used for this survey were meat-pentonlu agar (EPA) for cultivation of bacteria and Saburo environment for fungi. Each experiment used iml of test solution on each plate 500 min. Add 2 drops of emulsified with microbes feel. All experimental samples were taken from the agar after 10, 20, 40, 60 minutes in the environment on the basis of Patrk planted. Bacteria were cultivated at a temperature of 37° C. for 1 day and the mushroom was kept in a thermostat for […] at a temperature of 28° C. in the. Then results were checked.

Escherichia Coli = assay: Antimicrobial testing by agar dilution, E. Coli
Description: as §1

Candida albicans = assay: Antimicrobial testing by agar dilution, Candida albicans
Description: as §1

Pseudomonas aeruginosa = assay: Antimicrobial testing by agar dilution, Ps. aeruginosa
Description: as §1

Measured: inhibition activity (summary in words)

O=C(O)CCCN1C(=O)NC(c2ccc(Cl)cc2)(c2ccc(Cl)cc2)C1=O [4-[4,4-bis(4-chlorophenyl)-2,5-dioxoimidazolidin-1-yl]butanoic acid]
higher inhibition activity: all assays above
